Laboratory results published in publication PMC5218480 (PLoS ONE, 2017).

Test system: MV-4-11 cells
Assay: Gene expression microarray analysis (Affymetrix PrimeView) and GSEA
Assay type: cell-based, human
Set-up: RFU PODN (11730768_x_at) / Fold change /veh PODN (11730768_x_at) / RFU LINC00158 (11744669_a_at) / Fold change /veh LINC00158 (11744669_a_at) / RFU DUSP10 (11751237_a_at) / Fold change /veh DUSP10 (11751237_a_at) / RFU ID3 (11757404_x_at) / Fold change /veh ID3 (11757404_x_at) / RFU PLEKHG5 (11737974_s_at) / Fold change /veh PLEKHG5 (11737974_s_at) / RFU LRRC4B (11730491_at) / Fold change /veh LRRC4B (11730491_at) / RFU GIMAP4 (11747438_a_at) / Fold change /veh GIMAP4 (11747438_a_at) / RFU KRT8 (11758183_x_at) / Fold change /veh KRT8 (11758183_x_at) / RFU CNN1 (11734310_a_at) / Fold change /veh CNN1 (11734310_a_at) / RFU VPS37D (11726825_at) / Fold change /veh VPS37D (11726825_at) / RFU C10orf10 (11716522_x_at) / Fold change /veh C10orf10 (11716522_x_at) / RFU KIR2DL2 /// KIR2DL4 /// KIR2DL5A /// KIR2DL5B /// KIR2DS1 /// KIR2DS2 /// KIR2DS3 /// KIR2DS4 /// KIR3DL3 /// KIR3DL3 /// KIR3DS1 (11738374_at) / Fold change /veh KIR2DL2 /// KIR2DL4 /// KIR2DL5A /// KIR2DL5B /// KIR2DS1 /// KIR2DS2 /// KIR2DS3 /// KIR2DS4 /// KIR3DL3 /// KIR3DL3 /// KIR3DS1 (11738374_at) / RFU C1QL1 (11718748_at) / Fold change /veh C1QL1 (11718748_at) / RFU TMPRSS4 (11747572_a_at) / Fold change /veh TMPRSS4 (11747572_a_at) / RFU HAMP (11756126_x_at) / Fold change /veh HAMP (11756126_x_at) / RFU RNFT2 (11725882_a_at) / Fold change /veh RNFT2 (11725882_a_at) / RFU NR4A2 (11747474_a_at) / Fold change /veh NR4A2 (11747474_a_at) / RFU ABCC12 (11746883_a_at) / Fold change /veh ABCC12 (11746883_a_at) / RFU TMEM136 (11760407_x_at) / Fold change /veh TMEM136 (11760407_x_at) / RFU CLDN22 /// WWC2 (11732394_at) / Fold change /veh CLDN22 /// WWC2 (11732394_at) / RFU HLA-DPB1 (11760878_x_at) / Fold change /veh HLA-DPB1 (11760878_x_at) / RFU SPINT1 (11716480_a_at) / Fold change /veh SPINT1 (11716480_a_at) / RFU GAP43 (11754022_s_at) / Fold change /veh GAP43 (11754022_s_at) / RFU A4GNT (11735810_at) / Fold change /veh A4GNT (11735810_at) / RFU PRB3 (11715151_x_at) / Fold change /veh PRB3 (11715151_x_at) / RFU TUBB4B (11761932_at) / Fold change /veh TUBB4B (11761932_at) / RFU CAPN14 (11732068_a_at) / Fold change /veh CAPN14 (11732068_a_at) / RFU TMCC2 (11721928_a_at) / Fold change /veh TMCC2 (11721928_a_at) / RFU IRGQ (11745062_a_at) / Fold change /veh IRGQ (11745062_a_at) / RFU FAM174B (11720279_a_at) / Fold change /veh FAM174B (11720279_a_at) / RFU TMPRSS4 (11748680_a_at) / Fold change /veh TMPRSS4 (11748680_a_at) / RFU FAM212B (11763350_a_at) / Fold change /veh FAM212B (11763350_a_at) / RFU PLEKHG5 (11743358_a_at) / Fold change /veh PLEKHG5 (11743358_a_at) / RFU ZSCAN30 (11745921_a_at) / Fold change /veh ZSCAN30 (11745921_a_at) / RFU CMKLR1 (11741424_a_at) / Fold change /veh CMKLR1 (11741424_a_at) / RFU LOC101060620 /// MAPK8IP1 (11723275_at) / Fold change /veh LOC101060620 /// MAPK8IP1 (11723275_at) / RFU SPTSSB (11747773_x_at) / Fold change /veh SPTSSB (11747773_x_at) / RFU PRSS12 (11739890_at) / Fold change /veh PRSS12 (11739890_at) / RFU BIN1 (11741810_x_at) / Fold change /veh BIN1 (11741810_x_at) / RFU WNT11 (11732464_a_at) / Fold change /veh WNT11 (11732464_a_at) / RFU C10orf10 (11716521_a_at) / Fold change /veh C10orf10 (11716521_a_at) / RFU C5orf56 (11738089_at) / Fold change /veh C5orf56 (11738089_at) / RFU CYB561 (11721691_x_at) / Fold change /veh CYB561 (11721691_x_at) / RFU ANKRD19P (11752326_a_at) / Fold change /veh ANKRD19P (11752326_a_at) / RFU OR2T12 /// OR2T33 /// OR2T8 (11738714_s_at) / Fold change /veh OR2T12 /// OR2T33 /// OR2T8 (11738714_s_at) / RFU VCAN (11748164_a_at) / Fold change /veh VCAN (11748164_a_at) / RFU JSRP1 (11732532_at) / Fold change /veh JSRP1 (11732532_at) / RFU KRTAP10-11 (11738290_x_at) / Fold change /veh KRTAP10-11 (11738290_x_at) / RFU MYO3A (11730013_a_at) / Fold change /veh MYO3A (11730013_a_at) / RFU EBF3 (11725865_a_at) / Fold change /veh EBF3 (11725865_a_at) / RFU CAMK2N1 (11719241_x_at) / Fold change /veh CAMK2N1 (11719241_x_at) / RFU C5orf56 (11738088_a_at) / Fold change /veh C5orf56 (11738088_a_at) / RFU OLFML3 (11715873_a_at) / Fold change /veh OLFML3 (11715873_a_at) / RFU LOC100653217 /// NTM (11731650_a_at) / Fold change /veh LOC100653217 /// NTM (11731650_a_at) / RFU MAPK11 (11762145_a_at) / Fold change /veh MAPK11 (11762145_a_at) / RFU FIZ1 (11724087_x_at) / Fold change /veh FIZ1 (11724087_x_at) / RFU OASL (11726364_x_at) / Fold change /veh OASL (11726364_x_at) / RFU SOX15 (11748057_x_at) / Fold change /veh SOX15 (11748057_x_at) / RFU CD79A (11719716_a_at) / Fold change /veh CD79A (11719716_a_at) / RFU HIST1H1D (11736915_at) / Fold change /veh HIST1H1D (11736915_at) / RFU CASKIN2 (11723855_a_at) / Fold change /veh CASKIN2 (11723855_a_at) / RFU LOC730098 (11760151_x_at) / Fold change /veh LOC730098 (11760151_x_at) / RFU OR4N2 (11742367_at) / Fold change /veh OR4N2 (11742367_at) / RFU PRRT2 (11749266_a_at) / Fold change /veh PRRT2 (11749266_a_at) / RFU SNX32 (11753110_a_at) / Fold change /veh SNX32 (11753110_a_at) / RFU CDHR5 (11726645_a_at) / Fold change /veh CDHR5 (11726645_a_at) / RFU RCAN1 (11760418_a_at) / Fold change /veh RCAN1 (11760418_a_at) / RFU FAM167A (11723789_a_at) / Fold change /veh FAM167A (11723789_a_at) / RFU FAM26E (11764081_at) / Fold change /veh FAM26E (11764081_at) / RFU ISYNA1 (11749810_s_at) / Fold change /veh ISYNA1 (11749810_s_at) / RFU ACY1 (11761880_at) / Fold change /veh ACY1 (11761880_at) / RFU 11764098_at / Fold change /veh 11764098_at / RFU SAMD14 (11745864_x_at) / Fold change /veh SAMD14 (11745864_x_at) / RFU NPB (11741838_a_at) / Fold change /veh NPB (11741838_a_at) / RFU TMPRSS6 (11731388_a_at) / Fold change /veh TMPRSS6 (11731388_a_at) / RFU KRTAP10-2 (11738614_at) / Fold change /veh KRTAP10-2 (11738614_at) / RFU ARHGAP8 /// PRR5-ARHGAP8 (11727945_x_at) / Fold change /veh ARHGAP8 /// PRR5-ARHGAP8 (11727945_x_at) / RFU KRTAP5-7 /// NADSYN1 (11734609_at) / Fold change /veh KRTAP5-7 /// NADSYN1 (11734609_at) / RFU RASL12 (11751679_a_at) / Fold change /veh RASL12 (11751679_a_at) / RFU CDKN2B (11736163_a_at) / Fold change /veh CDKN2B (11736163_a_at) / RFU PRF1 (11729649_at) / Fold change /veh PRF1 (11729649_at) / RFU, ZNF638 /// ZNF638-IT1 / Fold change vs veh, ZNF638 /// ZNF638-IT1 / RFU, PANK3 / Fold change vs veh, PANK3 / RFU, SH3YL1 / Fold change vs veh, SH3YL1 / RFU, ZEB2 / Fold change vs veh, ZEB2 / RFU, NRIP1 / Fold change vs veh, NRIP1 / RFU, PTTG1IP / Fold change vs veh, PTTG1IP / RFU, CAPN2 / Fold change vs veh, CAPN2 / RFU, MED14 / Fold change vs veh, MED14 / RFU, SNORA58 / Fold change vs veh, SNORA58 / RFU, C1orf63 / Fold change vs veh, C1orf63 / RFU, LRRFIP1 / Fold change vs veh, LRRFIP1 / RFU, NDUFAF7 / Fold change vs veh, NDUFAF7 / RFU, SLC12A2 / Fold change vs veh, SLC12A2 / RFU, IBTK / Fold change vs veh, IBTK / RFU, ESF1 / Fold change vs veh, ESF1 / Fold change vs veh, TMEM50B / RFU, TAOK1 / Fold change vs veh, TAOK1 / RFU, ACBD3 / Fold change vs veh, ACBD3 / RFU, TMA16 / Fold change vs veh, TMA16 / RFU, RWDD3 / Fold change vs veh, RWDD3 / RFU, BCAT1 / Fold change vs veh, BCAT1 / RFU, EDEM3 / Fold change vs veh, EDEM3 / RFU, TMEM33 / Fold change vs veh, TMEM33 / RFU, WDR75 / Fold change vs veh, WDR75 / RFU, AHCTF1 / Fold change vs veh, AHCTF1 / RFU, TFRC / Fold change vs veh, TFRC / RFU, ZDHHC17 / Fold change vs veh, ZDHHC17 / RFU, NOM1 / Fold change vs veh, NOM1 / RFU, ARL8B / Fold change vs veh, ARL8B / RFU, ZBTB11 / Fold change vs veh, ZBTB11 / RFU, TAMM41 / Fold change vs veh, TAMM41 / RFU, KIAA1704 /// LOC100996395 / Fold change vs veh, KIAA1704 /// LOC100996395 / RFU, ING1 / Fold change vs veh, ING1 / RFU, TRMT61B / Fold change vs veh, TRMT61B / RFU, FUBP3 / Fold change vs veh, FUBP3 / RFU, TP53 / Fold change vs veh, TP53 / RFU, TNKS2 / Fold change vs veh, TNKS2 / RFU, ZFP14 / Fold change vs veh, ZFP14 / RFU, ACTR2 / Fold change vs veh, ACTR2 / RFU, PPP3R1 / Fold change vs veh, PPP3R1 / RFU, PIK3R1 / Fold change vs veh, PIK3R1 / RFU, HNRNPA1 / Fold change vs veh, HNRNPA1 / RFU, RNF170 / Fold change vs veh, RNF170 / RFU, ZNF28 / Fold change vs veh, ZNF28 / RFU, RNGTT / Fold change vs veh, RNGTT / RFU, OGT / Fold change vs veh, OGT / RFU, BRD1 / Fold change vs veh, BRD1 / RFU, MARS / Fold change vs veh, MARS / RFU, ZNF655 / Fold change vs veh, ZNF655 / RFU, FAHD1 / Fold change vs veh, FAHD1 / RFU, BDP1 / Fold change vs veh, BDP1 / RFU, LRRCC1 / Fold change vs veh, LRRCC1 / RFU, ARID1A / Fold change vs veh, ARID1A / RFU, ZNF146 / Fold change vs veh, ZNF146 / RFU, ZNF330 / Fold change vs veh, ZNF330 / RFU, GPN3 / Fold change vs veh, GPN3 / RFU, C9orf123 / Fold change vs veh, C9orf123 / RFU, N4BP2L2 / Fold change vs veh, N4BP2L2 / RFU, ARFIP1 / Fold change vs veh, ARFIP1 / RFU, FAM179B / Fold change vs veh, FAM179B / RFU, BCL10 / Fold change vs veh, BCL10 / RFU, UHRF1BP1L / Fold change vs veh, UHRF1BP1L / RFU, BET1 / Fold change vs veh, BET1 / RFU, CNOT2 / Fold change vs veh, CNOT2 / RFU, ZNF268 / Fold change vs veh, ZNF268 / Fold change vs veh, ZNF507 / RFU, DGCR2 / Fold change vs veh, DGCR2 / RFU, WDSUB1 / Fold change vs veh, WDSUB1 / Fold change vs veh, HSP90B1 /// MIR3652 / RFU, ADSS / Fold change vs veh, ADSS / RFU, GK / Fold change vs veh, GK / RFU, ZNF148 / Fold change vs veh, ZNF148 / RFU, TAF9 / Fold change vs veh, TAF9 / RFU, SLC1A5 / Fold change vs veh, SLC1A5 / RFU, SLMO2 / Fold change vs veh, SLMO2 / RFU, ABCC4 / Fold change vs veh, ABCC4 / RFU, LOC101060439 /// RAP1B / Fold change vs veh, LOC101060439 /// RAP1B / RFU, RFX7 / Fold change vs veh, RFX7 / RFU, GTPBP10 / Fold change vs veh, GTPBP10 / RFU, CNEP1R1 / Fold change vs veh, CNEP1R1 / RFU, BIVM-ERCC5 /// ERCC5 / Fold change vs veh, BIVM-ERCC5 /// ERCC5 / RFU, ILF3 / Fold change vs veh, ILF3 / RFU 11762660_at / Fold change /veh 11762660_at / RFU VCAN (11757783_s_at) / Fold change /veh VCAN (11757783_s_at) / RFU DDX43 (11728927_at) / Fold change /veh DDX43 (11728927_at) / RFU KRT8 (11758188_x_at) / Fold change /veh KRT8 (11758188_x_at) / RFU NKD1 (11759106_at) / Fold change /veh NKD1 (11759106_at) / RFU SRD5A1 (11742802_a_at) / Fold change /veh SRD5A1 (11742802_a_at) / RFU TPSAB1 /// TPSB2 (11721975_s_at) / Fold change /veh TPSAB1 /// TPSB2 (11721975_s_at) / RFU GSTM3 (11746129_a_at) / Fold change /veh GSTM3 (11746129_a_at) / RFU IL23R (11737362_x_at) / Fold change /veh IL23R (11737362_x_at) / RFU TMEM51 (11727254_a_at) / Fold change /veh TMEM51 (11727254_a_at) / RFU PIWIL2 (11732686_x_at) / Fold change /veh PIWIL2 (11732686_x_at) / RFU ORM1 (11744905_x_at) / Fold change /veh ORM1 (11744905_x_at) / RFU CCDC152 (11743942_at) / Fold change /veh CCDC152 (11743942_at) / RFU ECM1 (11717891_a_at) / Fold change /veh ECM1 (11717891_a_at) / RFU IL23R (11748794_a_at) / Fold change /veh IL23R (11748794_a_at) / RFU TNFAIP8L3 (11732012_x_at) / Fold change /veh TNFAIP8L3 (11732012_x_at) / RFU MBOAT4 (11741988_at) / Fold change /veh MBOAT4 (11741988_at) / RFU 11764193_at / Fold change /veh 11764193_at / RFU TMEM53 (11763286_at) / Fold change /veh TMEM53 (11763286_at) / RFU MAGEB2 (11727129_at) / Fold change /veh MAGEB2 (11727129_at) / RFU TMEM200A (11744735_a_at) / Fold change /veh TMEM200A (11744735_a_at) / RFU CCDC152 (11751479_a_at) / Fold change /veh CCDC152 (11751479_a_at) / RFU FAM211A (11726209_a_at) / Fold change /veh FAM211A (11726209_a_at) / RFU RGS16 (11746705_a_at) / Fold change /veh RGS16 (11746705_a_at) / RFU VCAN (11755009_s_at) / Fold change /veh VCAN (11755009_s_at) / RFU RHOB (11743442_s_at) / Fold change /veh RHOB (11743442_s_at) / RFU RGS16 (11720943_a_at) / Fold change /veh RGS16 (11720943_a_at) / RFU RGS16 (11720944_at) / Fold change /veh RGS16 (11720944_at) / RFU, VPS4B / Fold change vs veh, VPS4B / RFU, CREB1 / Fold change vs veh, CREB1 / RFU, DNAJC13 / Fold change vs veh, DNAJC13 / RFU, GNAQ / Fold change vs veh, GNAQ / RFU, CDK5R1 / Fold change vs veh, CDK5R1 / RFU, ZRANB3 / Fold change vs veh, ZRANB3 / RFU, CUL4A / Fold change vs veh, CUL4A / RFU, CCNY / Fold change vs veh, CCNY / RFU, UFL1 / Fold change vs veh, UFL1 / RFU, COG3 / Fold change vs veh, COG3 / RFU, DIAPH2 / Fold change vs veh, DIAPH2 / RFU, SKA2 / Fold change vs veh, SKA2 / RFU, AFF3 / Fold change vs veh, AFF3 / RFU, LMF1 / Fold change vs veh, LMF1 / RFU, IPO11 / Fold change vs veh, IPO11 / RFU, DFFB / Fold change vs veh, DFFB / RFU, FOXP1 / Fold change vs veh, FOXP1 / RFU, CARD8 / Fold change vs veh, CARD8 / RFU, STRN3 / Fold change vs veh, STRN3 / RFU, ADK / Fold change vs veh, ADK / RFU, RASSF2 / Fold change vs veh, RASSF2 / RFU, WIPF1 / Fold change vs veh, WIPF1 / RFU, LARP1B / Fold change vs veh, LARP1B / RFU, RASA1 / Fold change vs veh, RASA1 / RFU, RB1 / Fold change vs veh, RB1 / RFU, PPFIA1 / Fold change vs veh, PPFIA1 / RFU, MAT2A / Fold change vs veh, MAT2A / RFU, CCT5 / Fold change vs veh, CCT5 / RFU, WDR92 / Fold change vs veh, WDR92 / RFU, CUX1 / Fold change vs veh, CUX1 / RFU, TTC7A / Fold change vs veh, TTC7A / RFU, TMEM135 / Fold change vs veh, TMEM135 / RFU, DEPTOR / Fold change vs veh, DEPTOR / RFU, CPM / Fold change vs veh, CPM / RFU, DNAJB6 / Fold change vs veh, DNAJB6 / RFU, CACNA2D3 / Fold change vs veh, CACNA2D3 / RFU, DTX4 / Fold change vs veh, DTX4 / RFU, TFCP2 / Fold change vs veh, TFCP2 / RFU, GMCL1 /// GMCL1P1 / Fold change vs veh, GMCL1 /// GMCL1P1 / RFU, AEBP2 / Fold change vs veh, AEBP2 / RFU, SNHG1 /// SNORD22 /// SNORD25 /// SNORD26 /// SNORD27 /// SNORD28 /// SNORD29 /// SNORD31 / Fold change vs veh, SNHG1 /// SNORD22 /// SNORD25 /// SNORD26 /// SNORD27 /// SNORD28 /// SNORD29 /// SNORD31 / Fold change (Aza/veh), C12orf56 (ProbeSet 11735607_a_at) / Fold change (ACY-1035/veh), C12orf56 (ProbeSet 11735607_a_at) / Fold change (Aza/veh), FGFR1OP (ProbeSet 11751329_s_at) / Fold change (ACY-1035/veh), FGFR1OP (ProbeSet 11751329_s_at) / Fold change (Aza/veh), VPS36 (ProbeSet 11739960_a_at) / Fold change (ACY-1035/veh), VPS36 (ProbeSet 11739960_a_at) / RFU SYPL1 (11715823_x_at) / Fold change /veh SYPL1 (11715823_x_at) / RFU IGFBP7 (11715501_s_at) / Fold change /veh IGFBP7 (11715501_s_at) / RFU REEP3 (11722064_at) / Fold change /veh REEP3 (11722064_at) / RFU IGLL1 (11728026_x_at) / Fold change /veh IGLL1 (11728026_x_at): dose or concentration left out as unconfirmed
Conditions: MV-4-11 cells, 48 hours

Q: How did the “Fold change /veh A4GNT (11735810_at)” value turn out when `Nc1ccc(-c2cccs2)cc1NC(=O)c1ccc2c(c1)cc(C1CC1)n2CCN1CCOCC1` [ACY-1035] was run?
A: Its value is 1.01.
